Consider 14 compounds from patent US9233979B2, “Compounds that are ERK inhibitors” (Merck Sharp & Dohme Corp., priority 2012, dated 2016).

Sequence of phosphorylated active hERK2 enzyme (P28482 whole entry): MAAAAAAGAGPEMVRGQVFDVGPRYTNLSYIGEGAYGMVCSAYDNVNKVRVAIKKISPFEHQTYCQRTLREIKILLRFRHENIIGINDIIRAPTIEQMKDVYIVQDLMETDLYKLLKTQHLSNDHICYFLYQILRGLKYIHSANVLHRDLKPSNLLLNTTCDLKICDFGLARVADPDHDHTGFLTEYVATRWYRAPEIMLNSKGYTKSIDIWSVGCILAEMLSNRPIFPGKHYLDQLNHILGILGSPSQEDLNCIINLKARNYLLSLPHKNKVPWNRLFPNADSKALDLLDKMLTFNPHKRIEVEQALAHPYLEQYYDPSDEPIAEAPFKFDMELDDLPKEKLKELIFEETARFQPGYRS

For the first assay, the target named is phosphorylated active hERK2 enzyme (Homo sapiens (Human), UniProt P28482). The assay can be described thus: Active Human ERK2 (hERK2) Activity Assay (IMAP-FP). In kind it is biochemical. As to conditions: Table 5, 0.5 nM hERK2, 30 μM ATP, 10 point titration, read-out: AERK2 IC50. The essentials:
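IMAP fluorescence-polarization kinase assay: 0.5 nM activated hERK2 with 900 nM unlabeled plus 80 nM labeled peptide and 30 μM ATP, reacted 60 min. Quenched with IMAP beads in binding buffer with 24 mM NaCl; FP read after 60 min equilibration.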
With `COC[C@@H](NC(=O)Nc1cc2[nH]nc(N3CCCC3)c2cn1)c1ccccc1` [Example 28, 1-[(1S)-2-methoxy-1-phenylethyl]-3-(3-pyrrolidin-1-yl-1H-pyrazolo[4,3-c]pyridin-6-yl)urea], the half-inhibitory concentration (IC50) is 1 nM.
Still for that read-out and setting: under `COC[C@@H](NC(=O)Nc1cc2[nH]nc(N3CCOCC3C)c2cn1)c1ccccc1` (stereo partly drawn) [Example 27, 1-[(1S)-2-methoxy-1-phenylethyl]-3-[3-(3-methylmorpholin-4-yl)-1H-pyrazolo[4,3-c]pyridin-6-yl]urea] stands 1.2 nM; under `CNc1n[nH]c2cc(NC(=O)N[C@H](C)c3ccc(F)cc3)ncc12` [Example 1, 1-[(1R)-1-(4-Fluorophenyl)ethyl]-3-[3-(methylamino)-1H-pyrazolo[4,3-c]pyridin-6-yl]urea], 7.85 nM.

The assay is the same for the next values; noted with them: Table 6, 0.5 nM hERK2, 30 μM ATP, 10 point titration, read-out: AERK2 IC50.
As to `Nc1n[nH]c2cc(NC(=O)N[C@@H](c3ccccc3)[C@@H]3CCCO3)ncc12` [Example 152, 1-(3-amino-1H-pyrazolo[4,3-c]pyridin-6-yl)-3-{(S)-phenyl[(2S)-tetrahydrofuran-2-yl]methyl}urea], the IC50 came out at 0.9 nM.
Still for that read-out and setting: under `C[C@@H](NC(=O)Nc1cc2[nH]nc(NC(=O)c3cccnc3)c2cn1)c1ccccc1` [Example 211, N-[6-({[(1R)-1-phenylethyl]-carbamoyl}amino)-1H-pyrazolo[4,3-c]pyridin-3-yl]-pyridine-3-carboxamide] stands 3.1 nM; under `O=C(Nc1cc2[nH]nc(Nc3ccccc3Cl)c2cn1)N[C@@H]1CCCOc2ccccc21` [Example 119, 1-{3-[(2-chlorophenyl)-amino]-1H-pyrazolo[4,3-c]pyridin-6-yl}-3-[(5R)-2,3,4,5-tetrahydro-1-benzoxepin-5-yl]urea], 60.1 nM.
Still for that read-out and setting: under `CCNc1n[nH]c2cc(NC(=O)N[C@@H](c3ccccc3)C(C)(C)O)ncc12` [Example 420, 1-[3-(ethylamino)-1H-pyrazolo[4,3-c]pyridin-6-yl]-3-[(1S)-2-hydroxy-2-methyl-1-phenylpropyl]urea] stands 2.1 nM.
On the same count and under the same terms, then `CNc1n[nH]c2cc(NC(=O)N[C@H](C)c3ccccc3)nc(C)c12` [Example 336, 1-[4-methyl-3-(methylamino)-1H-pyrazolo[4,3-c]pyridin-6-yl]-3-[(1R)-1-phenylethyl]urea], with 11.8 nM; and `Cc1nc(NC(=O)N[C@H](C)c2ccccc2)cc2[nH]nc(N3CCC[C@H]3C(=O)O)c12` [Example 332, 1-[4-methyl-6-({[(1R)-1-phenyl-ethyl]carbamoyl}-amino)-1H-pyrazolo[4,3-c]-pyridin-3-yl]proline], with 74.7 nM.
On to `COC[C@@H](NC(=O)Nc1cc2[nH]nc(NC3CCC3)c2cn1)c1ccccc1` [Example 346, 1-[3-(cyclobutyl-amino)-1H-pyrazolo[4,3-c]-pyridin-6-yl]-3-[(1S)-2-methoxy-1-phenylethyl]urea], for which the IC50 amounted to 0.4 nM.
The same measure, in the same setting: then `Cc1cc(Nc2n[nH]c3cc(NC(=O)N[C@H](C)c4ccccc4)ncc23)ccn1` [Example 62, 1-{3-[(2-methylpyridin-4-yl)amino]-1H-pyrazolo[4,3-c]pyridin-6-yl}-3-[(1R)-1-phenylethyl]urea], with 14.7 nM; and `C[C@@H](NC(=O)Nc1cc2[nH]nc(N3CCC(C)(O)CC3)c2cn1)c1ccccc1` [Example 424, 1-[3-(4-hydroxy-4-methylpiperidin-1-yl)-1H-pyrazolo[4,3-c]-pyridin-6-yl]-3-[(1R)-1-phenylethyl]urea], with 21.5 nM.
Same read-out and setting: under `COC(C)(C)C(NC(=O)Nc1cc2[nH]nc(N3C[C@@H](C)O[C@@H](C)C3)c2cn1)c1ccc(F)cc1` (stereo partly drawn) [Example 432, 1-{3-[(2R,6S)-2,6-dimethylmorpholin-4-yl]-1H-pyrazolo[4,3-c]-pyridin-6-yl}-3-[1-(4-fluorophenyl)-2-methoxy-2-methylpropyl]urea] stands 2.4 nM; under `Nc1n[nH]c2cc(NC(=O)N[C@H](CO)c3ccccc3)ncc12` [Example 375, 1-(3-amino-1H-pyrazolo[4,3-c]-pyridin-6-yl)-3-[(1S)-2-hydroxy-1-phenylethyl]urea], 2.5 nM.

Usually IC50 stands for the concentration needed to halve the response being measured.
